{
  "source": "patent US20220257603A1",
  "about": "“COMBINATION THERAPY FOR TREATING MTAP-DEFICIENT TUMORS” (Board of Regents, The University of Texas System, priority 2019, published 2022)",
  "key": {"[1]": {"tested_on": "PD-L1", "assay": "PD-L1 expression on tumor cells with anti-folate agents", "details": "both in vitro and in vivo", "description": "Many types of tumors contain homozygous deletion of the methylthioadenosine phosphorylase (MTAP) gene, which encodes an essential enzyme to catalyze methylthioadenosine (MTA) in the salvage pathway for adenosine synthesis."}, "[2]": {"tested_on": "activated human T cells", "details": "incubation with MTA; cited from earlier work"}, "[3]": {"tested_on": "MB49 tumors", "assay": "Immune cells in MB49 tumors with in vivo pemetrexed treatment", "details": "FIG. 4B", "description": "(§1) For example, pemetrexed induced PD-L1 in MTAP-deficient bladder cancer cell lines (FIG. 4A). […] Based on this, FIG. 6 provides a proposed phase 2 trial schema for combination treatment with pemetrexed and an anti-PD-L1 therapy (e.g., avelumab)."}, "[4]": {"tested_on": "MTAP-deficient bladder cancer vs MTAP-wild type bladder cancer", "assay": "Response of bladder cancer patients to pemetrexed (RECIST)", "format": "in vivo, human", "description": "(§2) Asterisk represents a patient that died of a car accident and thus was not evaluable.\n(§3) Pemetrexed inhibited MTAP-deficient human tumor growth (FIG. 2C) but not MTAP-wild type tumor growth (FIG. 2D) in a xenograft mouse model."}, "[5]": {"tested_on": "MTAP-deficient human tumor", "assay": "Tumor growth in xenograft mouse model, MTAP-deficient tumor", "format": "in vivo", "details": "FIG. 2C", "description": "as §2, §3"}, "[6]": {"tested_on": "MTAP-wild type tumor", "assay": "Tumor growth in xenograft mouse model, MTAP-wild type tumor", "format": "in vivo", "details": "FIG. 2D", "description": "as §2, §3"}, "[7]": {"tested_on": "MTAP-deficient vs. MTAP-wild type human bladder cancer cell lines", "assay": "Apoptosis (sub-G1 population) after pemetrexed in human bladder cancer cell lines", "format": "cell-based", "details": "FIG. 2A", "description": "as §2, §3"}, "[8]": {"tested_on": "PD-L1", "assay": "PD-L1 expression in vivo on MB49 tumors", "details": "FIG. 4C", "description": "as §1"}, "[9]": {"tested_on": "MTAP-knockdown human tumors", "assay": "Tumor growth in xenograft mouse model, MTAP-knockdown tumor", "format": "in vivo", "details": "FIG. 2E", "description": "as §2, §3"}, "[10]": {"tested_on": "MTAP knockdown human bladder cell lines", "assay": "Apoptosis (sub-G1 population) after MTAP knockdown in human bladder cancer cell lines", "format": "cell-based", "details": "FIG. 2B", "description": "as §2, §3"}, "[11]": {"tested_on": "PD-L1", "assay": "PD-L1 expression in MTAP-deficient bladder cancer cell lines after pemetrexed", "format": "cell-based", "details": "FIG. 4A", "description": "as §1"}, "[12]": {"tested_on": "mouse CD8 T cells", "assay": "Cytokine production by activated mouse CD8 T cells", "format": "cell-based", "protocol": "MTA was added into culture for 72 h.\nMTA was added into culture for 72 h. […] Therefore, a triple combination therapy with pemetrexed +A2BR antagonists+anti-PD-L1 (or anti-PD1) can be ultra-effective for MTAP-deficient malignancies through five different mechanisms: (1) direct cytotoxicity (from pemetrexed); (2) decrease of MTA levels (from pemetrexed cytotoxicity) and thus alleviation of inhibition of IFN signaling and T cell function; (3) increases in levels of tumor PD-L1 expression (from pemetrexed); (4) T cell activation by mitigating MTA inhibition (A2BR antagonists); and (5) further T cell activation by inhibiting checkpoint molecule PD-L1 (anti-PD-L1 or anti-PD1)."}},
  "data": [
    {"smiles": "CN(Cc1cnc2nc(N)nc(N)c2n1)c1ccc(C(=O)N[C@@H](CCC(=O)O)C(=O)O)cc1", "note": "[methotrexate, Methotrexate]", "values": [
      {"measurement": "PD-L1 expression on tumor cells", "setting": "[1]", "value": "induce PD-L1 expression"}
    ]},
    {"smiles": "CSC[C@H]1O[C@@H](n2cnc3c(N)ncnc32)[C@H](O)[C@@H]1O", "note": "[MTA, methylthioadenosine]", "values": [
      {"measurement": "cytotoxicity to activated human T cells", "setting": "[2]", "value": "cytotoxic"}
    ]},
    {"smiles": "Nc1nc2[nH]cc(CCc3ccc(C(=O)N[C@@H](CCC(=O)O)C(=O)O)cc3)c2c(=O)[nH]1", "note": "[Pemetrexed]", "values": [
      {"measurement": "CD4/8 T cells in tumors", "setting": "[3]", "value": "increased"},
      {"measurement": "MDSCs in tumors", "setting": "[3]", "value": "decreased"},
      {"measurement": "dendritic cells in tumors", "setting": "[3]", "value": "increased"},
      {"measurement": "macrophages in tumors", "setting": "[3]", "value": "increased"},
      {"measurement": "response rate, MTAP-deficient vs MTAP-wild type bladder cancer patients", "setting": "[4]; combined retrospective and prospective data, FIG. 2H", "value": "higher response rate"},
      {"measurement": "response rate, MTAP-deficient vs MTAP-wild type bladder cancer patients", "setting": "[4]; prospective data, FIG. 2G", "value": "higher response rate"},
      {"measurement": "response rate, MTAP-deficient vs MTAP-wild type bladder cancer patients", "setting": "[4]; retrospective data, FIG. 2F", "value": "higher response rate"},
      {"measurement": "tumor growth", "setting": "[5]", "value": "inhibited"},
      {"measurement": "PD-L1 expression on tumor cells", "setting": "[1]", "value": "induce PD-L1 expression"},
      {"measurement": "tumor growth", "setting": "[6]", "value": "not"},
      {"measurement": "potency in inducing apoptosis (sub-G1 population), MTAP-deficient vs. MTAP-wild type", "setting": "[7]", "value": "at least 40 fold"},
      {"measurement": "PD-L1 expression in vivo", "setting": "[8]", "value": "induced PD-L1"},
      {"measurement": "tumor growth", "setting": "[9]", "value": "inhibited growth"},
      {"measurement": "apoptosis with pemetrexed treatment", "setting": "[10]", "value": "significant apoptosis"},
      {"measurement": "PD-L1 expression", "setting": "[11]", "value": "induced PD-L1"}
    ]},
    {"smiles": "N#Cc1c(N)nc(SCC(N)=O)c(C#N)c1-c1ccc(OCC2CC2)cc1", "note": "[Bay60-6385]", "values": [
      {"measurement": "production of INF-γ", "setting": "[12]; mouse CD8 T cells activated with anti-CD3/anti-CD28, 72 h, FIGS. 5A & 7A", "value": "mimic this inhibition"},
      {"measurement": "production of TNF-α", "setting": "[12]; mouse CD8 T cells activated with anti-CD3/anti-CD28, 72 h, FIGS. 5B & 7B", "value": "mimic this inhibition"}
    ]},
    {"smiles": "CCCn1c(=O)[nH]c2nc(-c3ccc(S(=O)(=O)N4CCN(c5ccc(Cl)cc5)CC4)cc3)[nH]c2c1=O", "note": "[PSB-603]", "values": [
      {"measurement": "rescue of MTA-induced inhibition on the production of INF-γ", "setting": "[12]; PSB603+MTA, mouse CD8 T cells, FIG. 7A", "value": "partially rescue"},
      {"measurement": "rescue of MTA-induced inhibition on the production of TNF-α", "setting": "[12]; PSB603+MTA, mouse CD8 T cells, FIG. 7B", "value": "partially rescue"}
    ]}
  ]
}
